Measured values as given in ChEMBL document CHEMBL1143537, “Discovery, synthesis and biological evaluation of novel glucokinase activators” (Bioorg Med Chem Lett, 2005).

Assays:
[1] = target: T1, Hexokinase-4 (Homo sapiens, UniProt P35557); experiment: Potency in Glucokinase activation assay
T1 sequence (P35557 whole entry): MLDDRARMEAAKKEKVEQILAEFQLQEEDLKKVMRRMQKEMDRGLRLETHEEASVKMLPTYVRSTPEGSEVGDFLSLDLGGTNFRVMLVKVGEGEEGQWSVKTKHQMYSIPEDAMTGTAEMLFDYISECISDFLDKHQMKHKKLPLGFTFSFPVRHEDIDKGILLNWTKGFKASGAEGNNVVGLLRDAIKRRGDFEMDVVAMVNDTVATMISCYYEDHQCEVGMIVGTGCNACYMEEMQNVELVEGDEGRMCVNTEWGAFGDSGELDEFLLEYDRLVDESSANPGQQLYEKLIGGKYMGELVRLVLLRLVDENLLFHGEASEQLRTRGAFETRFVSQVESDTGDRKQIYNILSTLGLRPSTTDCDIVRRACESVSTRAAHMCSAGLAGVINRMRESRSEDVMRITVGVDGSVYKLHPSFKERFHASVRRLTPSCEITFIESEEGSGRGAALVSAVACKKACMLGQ

[2] = Half life value of the compound; type: ADME; details: rat
[3] = Clearance value of the compound; type: ADME, organism-based; details: rat, in vivo
[4] = Volume of distribution of the compound; type: ADME; details: rat; read-out: Activity

Compound: CC(C)Oc1cc(OCc2ccccc2F)cc(C(=O)Nc2ccc(C(=O)O)cn2)c1
- EC50 [1]: 100 nM

Compound: CSc1ccc(OCc2ccccc2)c(/C=C/c2ccc(C(=O)O)cn2)c1
- EC50 [1]: 3200 nM

Compound: COc1cc(OC)cc(OCc2ccc(C(=O)O)cn2)c1
- EC50 [1]: > 10000 nM

Compound: O=C(O)c1ccc(OCc2cc(OCc3ccccc3)cc(OCc3ccccc3)c2)nc1
- EC50 [1]: > 10000 nM

Compound: O=C(O)c1ccc(NC(=O)c2cccc(OCc3ccccc3Cl)c2OCc2ccccc2Cl)nc1
- EC50 [1]: > 10000 nM

Compound: CC(C)Oc1cc(OCCc2ccncc2)cc(C(=O)Nc2ccc(C(=O)O)cn2)c1
- EC50 [1]: 1780 nM

Compound: CC(C)Oc1cc(OCCc2cccnc2)cc(C(=O)Nc2ccc(C(=O)O)cn2)c1
- EC50 [1]: 1260 nM

Compound: O=C(O)c1ccc(NC(=O)c2cc(OCc3ccccc3)cc(OCc3ccccc3)c2)nc1
- EC50 [1]: 400 nM

Compound: CC(C)Oc1cc(OCCCc2ccccc2)cc(C(=O)Nc2ccc(C(=O)O)cn2)c1
- EC50 [1]: 420 nM

Compound: O=C(O)c1ccc(CCc2cc(OCc3ccccc3)cc(OCc3ccccc3)c2)nc1
- EC50 [1]: > 10000 nM

Compound: CC(C)Oc1cc(OCC2CCCC2)cc(C(=O)Nc2ccc(C(=O)O)cn2)c1
- EC50 [1]: 650 nM

Compound: CC(C)Oc1cc(OCCC2CCOCC2)cc(C(=O)Nc2ccc(C(=O)O)cn2)c1
- EC50 [1]: 1330 nM

Compound: CC(C)Oc1cc(OCc2ccccc2)cc(C(=O)Nc2ccc(C(=O)O)cn2)c1
- EC50 [1]: 290 nM

Compound: O=C(O)c1ccc(C(=O)Nc2cc(OCc3ccccc3)cc(OCc3ccccc3)c2)nc1
- EC50 [1]: > 10000 nM

Compound: O=C(O)c1ccc(NC(=O)c2ccccc2OCc2ccccc2)nc1
- EC50 [1]: > 10000 nM

Compound: CC(C)Oc1cc(OCCC2CCCC2)cc(C(=O)Nc2ccc(C(=O)O)cn2)c1
- EC50 [1]: 170 nM

Compound: O=C(O)c1ccc(NC(=O)c2cccc(OCc3ccccc3Cl)c2)nc1
- EC50 [1]: 910 nM

Compound: CSc1ccc(OCc2ccccc2)c(C(=O)Nc2ccc(C(=O)O)cn2)c1
- EC50 [1]: 4220 nM

Compound: CC(C)Oc1cc(OCCc2ccccc2)cc(C(=O)Nc2ccc(C(=O)O)cn2)c1
- EC50 [1]: 130 nM

Compound: CSc1ccc(OCc2ccccc2)c(NC(=O)c2ccc(C(=O)O)cn2)c1
- EC50 [1]: > 10000 nM

Compound: CC(C)Oc1cc(OCCc2ccsc2)cc(C(=O)Nc2ccc(C(=O)O)cn2)c1
- half-life [2]: 54 min
- clearance [3]: 3.8 mL/min/kg
- Vd [4]: 0.3 L/kg

Compound: O=C(O)c1ccc(NC(=O)c2cc(OCc3ccccc3F)cc(OCc3ccccc3F)c2)nc1
- EC50 [1]: 90 nM

Compound: CC(C)COc1cc(OC(C)C)cc(C(=O)Nc2ccc(C(=O)O)cn2)c1
- EC50 [1]: 570 nM
